This note sets out measurements from US8129355B2, “Ketone ligands for modulating the expression of exogenous genes via an ecdysone receptor complex” (priority 2002, dated 2012).

Test [1] concerns the target T1, GAL4 DBD (1-147)-CfEcR(DEF)/VP16AD-βRXREF-LmUSPEF (Choristoneura fumiferana, UniProt O77240).
T1 sequence (O77240 191-513): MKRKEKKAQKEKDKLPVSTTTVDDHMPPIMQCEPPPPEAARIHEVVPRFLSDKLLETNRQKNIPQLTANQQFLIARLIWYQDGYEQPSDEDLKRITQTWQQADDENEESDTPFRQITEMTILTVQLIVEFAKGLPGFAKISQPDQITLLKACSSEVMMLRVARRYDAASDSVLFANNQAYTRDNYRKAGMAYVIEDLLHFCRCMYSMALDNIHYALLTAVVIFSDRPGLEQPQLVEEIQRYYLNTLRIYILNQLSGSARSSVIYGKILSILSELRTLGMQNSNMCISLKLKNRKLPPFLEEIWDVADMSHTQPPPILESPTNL
T1 sequence (P28702 296-455 partner limits assumed): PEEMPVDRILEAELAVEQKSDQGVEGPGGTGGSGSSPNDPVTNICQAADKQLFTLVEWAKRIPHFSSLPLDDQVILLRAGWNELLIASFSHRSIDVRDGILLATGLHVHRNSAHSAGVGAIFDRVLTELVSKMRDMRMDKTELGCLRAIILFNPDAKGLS
Description: 27-63 assay: luciferase reporter gene expression in stable CHO cell clone 27-63. As to conditions: for 27-63 Rel Max FI: maximum fold induction at any concentration relative to that of GS-E ligand; for CC50: read-out: 27-63 LC50, average, dose response, three-parameter logistic model. Put shortly: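 CHO clone stably expressing GAL4 DBD-CfEcR(DEF) and VP16AD-HsRXRβ/LmUSP EF chimera plus a 5XGAL4RE-luciferase reporter; ligands given at 8 concentrations (33 μM to 0.01 μM), luminescence read 48 h after treatment. Fold induction versus DMSO cells; BC50 from three-parameter logistic fit.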

Test [2] addresses T2, GAL4 DBD-CfEcR(DEF)/VP16AD-MmRXRE (Choristoneura fumiferana, UniProt O77240).
T2 sequence (O77240 1-513): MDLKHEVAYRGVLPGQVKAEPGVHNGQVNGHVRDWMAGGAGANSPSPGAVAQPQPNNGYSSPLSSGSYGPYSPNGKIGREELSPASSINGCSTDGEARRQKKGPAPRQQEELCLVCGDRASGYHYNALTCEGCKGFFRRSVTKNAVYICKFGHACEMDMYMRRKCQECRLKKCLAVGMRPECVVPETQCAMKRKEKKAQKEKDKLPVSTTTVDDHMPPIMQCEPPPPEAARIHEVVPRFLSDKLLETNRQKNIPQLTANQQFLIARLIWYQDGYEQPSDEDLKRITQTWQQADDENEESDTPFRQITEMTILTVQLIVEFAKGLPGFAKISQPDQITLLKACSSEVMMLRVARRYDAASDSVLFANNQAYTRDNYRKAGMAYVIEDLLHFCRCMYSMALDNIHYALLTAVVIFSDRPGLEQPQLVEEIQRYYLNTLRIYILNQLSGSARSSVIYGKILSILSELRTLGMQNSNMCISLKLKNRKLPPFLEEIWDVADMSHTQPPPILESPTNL
Description: cell-based. The following applies: for fold induction at 33 µM: CHO, read-out: Fold Induction Average, 13B3 Assay (33 μM); for 13B3 Rel Max FI: maximum fold induction at any concentration relative to that of GS-E ligand. The method, boiled down: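 Stable CHO clone 13B3 expressing GAL4 DBD-CfEcR(DEF) and VP16AD-mouse RXR(DE) with GAL4 RE-luciferase reporter. Ligands tested at 8 concentrations, 33–0.01 μM; luciferase read 48 h after treatment. Fold induction versus DMSO; BC50 from three-parameter logistic fit.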

As for `COc1cccc(C(=O)NC2(C(=O)c3cc(F)c(F)c(OC)c3)CCCC2)c1C` [Example 67], in test [1], the “27-63 Rel Max FI” value is listed as 0.77 and the CC50 came out at 6.59 µM. Moreover, in test [2], a half-maximal effect (EC50) was put at 17.6 µM, the fold induction at 33 µM turned out to be 555 and the “13B3 Rel Max FI” value was 0.50.

As to `CCCCC(=O)C1(NC(=O)c2cccc(OC)c2C)CCCCC1` [Example 120], in test [1], the “27-63 Rel Max FI” value was 0.65 and the CC50 came out at 9.05 µM. Besides, in test [2], the EC50 (in general, the concentration that produces a half-maximal response) came to 14.9 µM; the fold induction at 33 µM came out at 367; the “13B3 Rel Max FI” value amounted to 0.27.

`COc1cccc(C(=O)C2(NC(=O)c3cccc(OC)c3C)CCCCC2)c1` [Example 4]: in test [1], the “27-63 Rel Max FI” value turned out to be 1.06 and the CC50 amounted to 4.28 µM. Besides, in test [2], the EC50 was 3.46 µM, the fold induction at 33 µM is 45 and the “13B3 Rel Max FI” value came to 0.64.

As for `CCC(CC)(NC(=O)c1cccc(OC)c1C)C(=O)c1cccc(OC)c1` [Example 49], in test [1], the “27-63 Rel Max FI” value came to 0.00 and the CC50 is above 33 µM. In test [2], the EC50 is above 33 µM and the “13B3 Rel Max FI” value stood at 0.00.

Turning to `COc1ccccc1C(=O)C1(NC(=O)c2cccc(OC)c2C)CCCC1` [Example 40], in test [1], the “27-63 Rel Max FI” value amounted to 0.67 and the CC50 was 6.61 µM. Also, in test [2], the EC50 was around 15 µM, the fold induction at 33 µM stood at 2170 and the “13B3 Rel Max FI” value was determined as 0.58.

On to `COc1ccc(C(=O)C2(NC(=O)c3cccc(OC)c3C)CCCCC2)cc1` [Example 46], for which the fold induction at 33 µM in test [1] (CHO, read-out: Fold Induction Average, 27-63 Assay (33 μM)) was found to be 5. Further, in test [1], the “27-63 Rel Max FI” value is on record as 0.00 and the CC50 is above 33 µM. Moreover, in test [2], the EC50 is above 33 µM, the fold induction at 33 µM came out at 102 and the “13B3 Rel Max FI” value turned out to be 0.00.
